Measurements as given in PubChem BioAssay AID1845216 (Molecular Pharmacology Branch, DTP, NCI, 2023).

Test system: SW 982 tumor spheroid viability
Assay: Anticancer human tumor SW 982 cell line growth inhibition;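 further: spheroids exposed to compound for 7 days before readout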
Conditions: spheroids with HUVEC and MSC; for IC50: curve of first compound; for viability, T/C: stronger effect = lower value
Summary of the method: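 Complex tumor spheroids combined malignant cells with endothelial cells and mesenchymal stem cells. DNA-damaging drugs and DNA repair inhibitors were tested alone and in combination, at half-log dilutions down from clinical Cmax (top 10 microM if Cmax unknown), 0.25% DMSO final.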

[1] = second compound 1 µM, first compound 0.0316 µM
[2] = second compound 1 µM, first compound 0.1 µM
[3] = second compound 1 µM, first compound 0.316 µM
[4] = second compound 1 µM, first compound 1 µM
[5] = second compound 1 µM, first compound 3.16 µM
[6] = second compound 1 µM, first compound 10 µM
[7] = second compound 3.16 µM, first compound 0.0316 µM
[8] = second compound 3.16 µM, first compound 0.1 µM
[9] = second compound 3.16 µM, first compound 0.316 µM
[10] = second compound 3.16 µM, first compound 1 µM
[11] = second compound 3.16 µM, first compound 3.16 µM
[12] = second compound 3.16 µM, first compound 10 µM
[13] = second compound 10 µM, first compound 0.0316 µM
[14] = second compound 10 µM, first compound 0.1 µM
[15] = second compound 10 µM, first compound 0.316 µM
[16] = second compound 10 µM, first compound 1 µM
[17] = second compound 10 µM, first compound 3.16 µM
[18] = second compound 10 µM, first compound 10 µM
[19] = second compound 31.6 µM, first compound 0.0316 µM
[20] = second compound 31.6 µM, first compound 0.1 µM
[21] = second compound 31.6 µM, first compound 0.316 µM
[22] = second compound 31.6 µM, first compound 1 µM
[23] = second compound 31.6 µM, first compound 3.16 µM
[24] = second compound 31.6 µM, first compound 10 µM
[25] = second compound 100 µM, first compound 0.0316 µM
[26] = second compound 100 µM, first compound 0.1 µM
[27] = second compound 100 µM, first compound 0.316 µM
[28] = second compound 100 µM, first compound 1 µM
[29] = second compound 100 µM, first compound 3.16 µM
[30] = second compound 100 µM, first compound 10 µM

| SMILES | IC50 (second compound 1 µM) [µM] | IC50 (second compound 3.16 µM) [µM] | IC50 (second compound 10 µM) [µM] | IC50 (second compound 31.6 µM) [µM] | IC50 (second compound 100 µM) [µM] | viability, T/C [1] [%] | viability, T/C [2] [%] | viability, T/C [3] [%] | viability, T/C [4] [%] | viability, T/C [5] [%] | viability, T/C [6] [%] | viability, T/C [7] [%] | viability, T/C [8] [%] | viability, T/C [9] [%] | viability, T/C [10] [%] | viability, T/C [11] [%] | viability, T/C [12] [%] | viability, T/C [13] [%] | viability, T/C [14] [%] | viability, T/C [15] [%] | further results |
| --- | --- | --- | --- | --- | --- | --- | --- | --- | --- | --- | --- | --- | --- | --- | --- | --- | --- | --- | --- | --- | --- |
| CC(C)n1c(=O)n(C)c2cnc3cc(F)c(-c4ccc(OCCCN5CCCCC5)nc4)cc3c21 + Cn1nnc2c(C(N)=O)ncn2c1=O | > 10 | 7.44 | 4.91 | 3.72 | 1.88 | 91.7 | 91.3 | 91.5 | 85.4 | 68.1 | 56.7 | 91 | 84 | 85.8 | 84.2 | 66.4 | 44.3 | 75.2 | 75.5 | 78.5 | viability, T/C [16]: 72.7%; viability, T/C [17]: 55.8%; viability, T/C [18]: 40.6%; viability, T/C [19]: 68.3%; viability, T/C [20]: 70%; viability, T/C [21]: 68.8%; viability, T/C [22]: 62%; viability, T/C [23]: 52.5%; viability, T/C [24]: 35%; viability, T/C [25]: 55.1%; viability, T/C [26]: 57.4%; viability, T/C [27]: 55.2%; viability, T/C [28]: 54%; viability, T/C [29]: 46.4%; viability, T/C [30]: 37% |
| CC1COCCN1c1cc(-c2ccnn2C)c2ccnc(-c3ccn[nH]3)c2n1 (stereo not given) + Cn1nnc2c(C(N)=O)ncn2c1=O | < 0.0316 | < 0.0316 | < 0.0316 | < 0.0316 | < 0.0316 | 32.4 | 20.4 | 17.3 | 15.4 | 19.2 | 23 | 26.9 | 17 | 15.8 | 17 | 19.7 | 22.5 | 21.1 | 16.6 | 13 | viability, T/C [16]: 13.3%; viability, T/C [17]: 22.9%; viability, T/C [18]: 20.3%; viability, T/C [19]: 20.6%; viability, T/C [20]: 15.8%; viability, T/C [21]: 13.1%; viability, T/C [22]: 11.8%; viability, T/C [23]: 12.5%; viability, T/C [24]: 18.2%; viability, T/C [25]: 15%; viability, T/C [26]: 12.8%; viability, T/C [27]: 10.3%; viability, T/C [28]: 9.31%; viability, T/C [29]: 11.1%; viability, T/C [30]: 14.6% |
| COc1cc(C)[nH]c(=O)c1CN1CCc2c(Cl)cc(C(OC)C3COC3)c(Cl)c2C1=O (stereo not given) + Cn1nnc2c(C(N)=O)ncn2c1=O | > 10 | > 10 | > 10 | > 10 | > 10 | 101 | 103 | 103 | 113 | 101 | 99.7 | 94.3 | 92.4 | 96 | 102 | 100 | 93.1 | 81.8 | 83.5 | 86.2 | viability, T/C [16]: 88.3%; viability, T/C [17]: 85.8%; viability, T/C [18]: 78.3%; viability, T/C [19]: 71.1%; viability, T/C [20]: 71.7%; viability, T/C [21]: 70.4%; viability, T/C [22]: 78.8%; viability, T/C [23]: 70%; viability, T/C [24]: 69.1%; viability, T/C [25]: 58.6%; viability, T/C [26]: 62.3%; viability, T/C [27]: 65%; viability, T/C [28]: 64.3%; viability, T/C [29]: 64.6%; viability, T/C [30]: 61.9% |
| COc1ccc([C@@H](O)c2cc(-c3ncnc4cc(N5CCOCC5)ccc34)c(F)cc2Cl)nn1 + Cn1nnc2c(C(N)=O)ncn2c1=O | 6.29 | 3.83 | 4.03 | 1.18 | 0.283 | 90.6 | 95.4 | 93.3 | 84.9 | 81.6 | 29.6 | 76.7 | 83.8 | 90.1 | 70.4 | 55.9 | 26 | 76.9 | 70 | 73 | viability, T/C [16]: 57.6%; viability, T/C [17]: 63.2%; viability, T/C [18]: 18.4%; viability, T/C [19]: 63.5%; viability, T/C [20]: 63.2%; viability, T/C [21]: 60.4%; viability, T/C [22]: 51.5%; viability, T/C [23]: 38.5%; viability, T/C [24]: 25.5%; viability, T/C [25]: 59.9%; viability, T/C [26]: 57.9%; viability, T/C [27]: 48.1%; viability, T/C [28]: 39.3%; viability, T/C [29]: 32.5%; viability, T/C [30]: 15.6% |
| Cc1cc(C)c(CNC(=O)c2cc(-c3ccc(CN4CCOCC4)cc3)cc3c2cnn3C2CCCC2)c(=O)[nH]1 + Cn1nnc2c(C(N)=O)ncn2c1=O | > 10 | > 10 | > 10 | > 10 | > 10 | 102 | 104 | 103 | 103 | 92.1 | 91.2 | 88.4 | 99.2 | 101 | 96.6 | 92.3 | 70.6 | 86.7 | 82.6 | 81.3 | viability, T/C [16]: 82.8%; viability, T/C [17]: 82.2%; viability, T/C [18]: 53.4%; viability, T/C [19]: 73.8%; viability, T/C [20]: 69%; viability, T/C [21]: 74.9%; viability, T/C [22]: 73.5%; viability, T/C [23]: 74.4%; viability, T/C [24]: 58.7%; viability, T/C [25]: 58.9%; viability, T/C [26]: 63%; viability, T/C [27]: 57.7%; viability, T/C [28]: 63.5%; viability, T/C [29]: 55.3%; viability, T/C [30]: 53.8% |
| [2H]c1nc(C)nc([2H])c1-c1cc(NC[C@@H](C)c2cccc3c(C(=O)NC)ccnc23)ncn1 + Cn1nnc2c(C(N)=O)ncn2c1=O | > 10 | > 10 | > 10 | > 10 | > 10 | 100 | 102 | 92.6 | 103 | 106 | 82.3 | 92.6 | 86.4 | 96 | 86.8 | 63.9 | 55.1 | 83.8 | 76 | 78.5 | viability, T/C [16]: 80.7%; viability, T/C [17]: 71.7%; viability, T/C [18]: 59.8%; viability, T/C [19]: 69.5%; viability, T/C [20]: 76.2%; viability, T/C [21]: 76.8%; viability, T/C [22]: 72.5%; viability, T/C [23]: 76.5%; viability, T/C [24]: 71.2%; viability, T/C [25]: 63.5%; viability, T/C [26]: 63.4%; viability, T/C [27]: 58%; viability, T/C [28]: 60.9%; viability, T/C [29]: 56.9%; viability, T/C [30]: 60.7% |
